{
  "source": "patent US20060275854A1",
  "about": "“Method for monitoring reactions in real time” (priority 2003, published 2006)",
  "key": {"[1]": {"system": "anti-ATP signaling aptamer", "assay": "Fluorescence signaling of the structure-switching ATP aptamer reporter on target addition", "format": "binding", "conditions": "for fluorescence intensity increase over the background reading: 750 μM target, FIG. 1B"}, "porcine ALP [2]": {"system": "porcine ALP", "conditions": "0.1 mM compound, 0.75 mM AMP, FIG. 5A", "quoted_text": "The resulting mixture was incubated for another 10 min, followed by the addition of 5 units of porcine ALP (resulting in a concentration of 0.01 units/μL) and further incubation for 75 more minutes. The fluorescence intensity (FALP) was monitored continuously. For the same compound, the fluorescence intensity (FNoALP) of a control reaction with the addition of porcine ALP was also recorded in the same way."}, "porcine ALP [3]": {"target": "porcine ALP", "conditions": "known inhibitors; cited from earlier work"}, "calf intestine ALP": {"system": "calf intestine ALP", "conditions": "known; cited from earlier work"}, "[4]": {"system": "Adenosine Deaminase (ADA)", "assay": "Adenosine deaminase activity and inhibition monitored by signaling aptamer", "format": "biochemical", "experimental": "Adenosine deaminase transforms adenosine into inosine. […] Thus conversion from adenosine to inosine results in a decrease in fluorescent signal. […] EHNA is a known inhibitor of adenosine deaminase.\nAfter 3 minutes, different concentrations of EHNA.HC1, an adenosine deaminase inhibitor, in DMSO were introduced: no inhibitor (blue line), 100 nM inhibitor (green line) and 10 μM inhibitor (red line). The solutions were further incubated for 5 more minutes. […] Finally, the solutions were exposed to an enzyme, called Adenosine Deaminase (ADA), which transforms adenosine into inosine. The aptamer has no affinity for the inosine, so the transformation should induce the disruption of the aptamer—adenosine complex state and the formation of a duplex state with the QDNA."}},
  "note": "Entries after “also recorded” stand apart in the source; their conditions may differ.",
  "data": [
    {"smiles": "OC[C@H]1O[C@@H](n2cnc3c(O)ncnc32)[C@H](O)[C@@H]1O", "note": "[inosine]", "values": [
      {"measurement": "affinity of the signaling aptamer for the substance (in words)", "setting": "[1]", "value": "virtually no affinity; also recorded: no affinity at all"}
    ]},
    {"smiles": "Cl.c1ccc(C2CN3CCSC3=N2)cc1", "note": "(single isomer, unassigned; (-)) [Levamisole, (−) 2,3,5,6-Tetrahydro-6-phenylimidazo[2,1-b]thiazole hydrochloride]", "values": [
      {"measurement": "rate of transformation of AMP to adenosine relative to the uninhibited reaction", "setting": "porcine ALP [2]", "value": "considerably reduced"},
      {"measurement": "Ki", "setting": "porcine ALP [3]", "value": "low mM range"},
      {"measurement": "inhibition of calf intestine ALP (in words)", "setting": "calf intestine ALP", "value": "not calf intestine ALP"}
    ]},
    {"smiles": "Cl.c1ccc(C2CN3CCSC3=N2)cc1", "note": "(racemic) [Tetramisole, (±) 2,3,5,6-Tetrahydro-6-phenylimidazo[2,1-b]thiazole hydrochloride]", "values": [
      {"measurement": "rate of transformation of AMP to adenosine relative to the uninhibited reaction", "setting": "porcine ALP [2]", "value": "considerably reduced"},
      {"measurement": "Ki", "setting": "porcine ALP [3]", "value": "low mM range"},
      {"measurement": "inhibition of calf intestine ALP (in words)", "setting": "calf intestine ALP", "value": "not calf intestine ALP"}
    ]},
    {"smiles": "Nc1ncnc2c1ncn2[C@@H]1O[C@H](COP(=O)(O)O)[C@@H](O)[C@H]1O", "note": "[AMP, adenosine 5′-monophosphate]", "values": [
      {"measurement": "affinity of the signaling aptamer for the substance (in words)", "setting": "[1]", "value": "moderate affinity"},
      {"measurement": "fluorescence intensity increase over the background reading", "setting": "[1]", "value": 5.3, "unit": "fold"}
    ]},
    {"smiles": "Nc1ncnc2c1ncn2[C@@H]1O[C@H](CO)[C@@H](O)[C@H]1O", "note": "[adenosine]", "values": [
      {"measurement": "affinity of the signaling aptamer for the substance (in words)", "setting": "[1]", "value": "higher affinity"},
      {"measurement": "fluorescence intensity increase over the background reading", "setting": "[1]", "value": 8.1, "unit": "fold"}
    ]},
    {"smiles": "CCCCCC[C@@H]([C@@H](C)O)n1cnc2c(N)ncnc21.Cl", "note": "[EHNA]", "values": [
      {"measurement": "rate of deamination", "setting": "[4]; 100 nM inhibitor, 1 mM adenosine", "value": "slower"},
      {"measurement": "rate of deamination", "setting": "[4]; 10 μM inhibitor, 1 mM adenosine", "value": "virtually stopped"},
      {"measurement": "rate of deamination", "setting": "[4]; 10 μM inhibitor, 1 mM adenosine, listed as EHNA.HC1", "value": "almost no deamination"},
      {"measurement": "rate of deamination", "setting": "[4]; 100 mM EHNA, FIG. 6", "value": "reduced"}
    ]},
    {"smiles": "Nc1ncnc2c1ncn2[C@@H]1O[C@H](COP(=O)(O)OP(=O)(O)O)[C@@H](O)[C@H]1O", "note": "[ADP, adenosine 5′-diphosphate]", "values": [
      {"measurement": "fluorescence intensity increase over the background reading", "setting": "[1]", "value": 8.3, "unit": "fold"}
    ]},
    {"smiles": "Nc1ncnc2c1ncn2[C@@H]1O[C@H](COP(=O)(O)OP(=O)(O)OP(=O)(O)O)[C@@H](O)[C@H]1O", "note": "[ATP, adenosine 5′-triphosphate]", "values": [
      {"measurement": "fluorescence intensity increase over the background reading", "setting": "[1]", "value": 6.9, "unit": "fold"}
    ]}
  ]
}
